Reference: ChEMBL document CHEMBL4699518, “Cytotoxic Xanthone Derivatives from the Mangrove-Derived Endophytic Fungus Peniophora incarnata Z4” (J Nat Prod, 2020)

What was measured:
Assay type in all cases: functional, cell-based
A-375 = assay: Cytotoxicity against human A-375 cells assessed as reduction in cell viability after 48 hrs by MTT assay; conditions: A-375, 48 h
HL-60 = assay: Cytotoxicity against human HL-60 cells assessed as reduction in cell viability after 48 hrs by MTT assay; conditions: HL-60, 48 h
MCF7 = assay: Cytotoxicity against human MCF7 cells assessed as reduction in cell viability after 48 hrs by MTT assay; conditions: MCF7, 48 h

Compound | IC50 (A-375) | IC50 (HL-60) | IC50 (MCF7)
COC(=O)CCc1oc2cccc(O)c2c(=O)c1[C@H](O)C(=O)OC | > 10 µM | > 10 µM | > 10 µM
COC(=O)c1c(N[C@@H]2Cc3oc4cccc(O)c4c(=O)c3[C@](O)(C(=O)OC)[C@@H]2O)ccc2oc3cccc(O)c3c(=O)c12 | > 10 µM | > 10 µM | > 10 µM
COC(=O)c1c(O)ccc2oc3cc(O)cc(O)c3c(=O)c12 | > 10 µM | > 10 µM | > 10 µM
COC(=O)[C@@]1(O)c2c(oc3cccc(O)c3c2=O)C[C@@H](OC)[C@H]1O | > 10 µM | > 10 µM | > 10 µM
COC(=O)[C@@]1(O)c2c(oc3cccc(O)c3c2=O)[C@@H](O)C[C@@H]1O | > 10 µM | > 10 µM | > 10 µM
COC(=O)[C@@]1(O)c2c(oc3cccc(O)c3c2=O)C[C@@H](S)[C@@H]1O | 8.6 µM | 4.9 µM | 6.5 µM
O=C1N[C@@H]2Cc3oc4cccc(O)c4c(=O)c3[C@@]1(O)[C@@H]2O | > 10 µM | > 10 µM | > 10 µM
COc1cccc2c1C(=O)c1c(O)c3c(c(O)c1C2=O)C[C@@](O)(C(=O)CO)C[C@@H]3O[C@H]1C[C@H](N)[C@H](O)[C@H](C)O1 [DOXORUBICIN] | 2.1 µM | 1.2 µM | 
